According to ChEMBL document CHEMBL1201862, “PubChem BioAssay data set” (2004):
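Compound exposure: 48 hours, 5 concentrations, 96-well plates. Abbreviation: GI50, concentration required for 50% inhibition of growth.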 Active and inactive are the calls of the source. Cut-off read from the data, not from the text of the source: active = GI50 up to about 1.1 µM and inactive = higher.

How the values were obtained:
Test in all cases: DTP human tumour cell line panel, 48 h
NCI-H23 = test system: NCI-H23
UACC-62 = test system: UACC-62
SF-539 = test system: SF-539
SR = test system: SR
MDA-MB-435 = test system: MDA-MB-435
T47D = test system: T47D
UACC-257 = test system: UACC-257
RXF 393 = test system: RXF 393
SF-295 = test system: SF-295
SK-OV-3 = test system: SK-OV-3
HCC 2998 = test system: HCC 2998
LOX IMVI = test system: LOX IMVI
RPMI-8226 = test system: RPMI-8226
NCI-H226 = test system: NCI-H226
HCT-15 = test system: HCT-15
HT-29 = test system: HT-29
SK-MEL-5 = test system: SK-MEL-5
SN12C = test system: SN12C
SK-MEL-28 = test system: SK-MEL-28
UO-31 = test system: UO-31
M14 = test system: M14
K562 = test system: K562
OVCAR-8 = test system: OVCAR-8
OVCAR-5 = test system: OVCAR-5
Hs-578T = test system: Hs-578T
SNB-75 = test system: SNB-75
BT-549 = test system: BT-549
KM12 = test system: KM12
MDA-N = test system: MDA-N
U-251 = test system: U-251
ACHN = test system: ACHN
MOLT-4 = test system: MOLT-4
SF-268 = test system: SF-268
SNB-19 = test system: SNB-19
PC-3 = test system: PC-3
SW-620 = test system: SW-620
MCF7 = test system: MCF7
OVCAR-3 = test system: OVCAR-3
CAKI-1 = test system: CAKI-1
A498 = test system: A498
COLO 205 = test system: COLO 205
HCT-116 = test system: HCT-116
A549 = test system: A549
NCI/ADR-RES = test system: NCI/ADR-RES
OVCAR-4 = test system: OVCAR-4
DU-145 = test system: DU-145
HL-60 = test system: HL-60
786-0 = test system: 786-0
SK-MEL-2 = test system: SK-MEL-2
HOP-92 = test system: HOP-92
MDA-MB-231 = test system: MDA-MB-231
CCRF-CEM = test system: CCRF-CEM
NCI-H460 = test system: NCI-H460
TK-10 = test system: TK-10
IGROV-1 = test system: IGROV-1
EKVX = test system: EKVX
HOP-62 = test system: HOP-62
Malme-3M = test system: Malme-3M

Question: `COC(=O)C(=O)C(C(=O)C(=O)Nc1ccc([N+](=O)[O-])cc1[N+](=O)[O-])c1nc2ccc(Cl)cc2nc1O` (stereo not given) was tested. Which GI50 (NCI-H23) did it give?
Answer: > 100 µM (inactive)

Question: What about the GI50 (UACC-62) of the same molecule?
Answer: > 100 µM (inactive)

Question: And the GI50 (SF-539)?
Answer: > 100 µM (inactive)

Question: What about the GI50 (SR) of the same molecule?
Answer: > 100 µM (inactive)

Question: What about the GI50 (MDA-MB-435) of the same molecule?
Answer: > 100 µM (inactive)

Question: What about the GI50 (T47D) of the same molecule?
Answer: > 100 µM (inactive)

Question: And the GI50 (UACC-257)?
Answer: > 100 µM (inactive)

Question: And the GI50 (RXF 393)?
Answer: 65.3 µM (inactive)

Question: And the GI50 (SF-295)?
Answer: > 100 µM (inactive)

Question: What about the GI50 (SK-OV-3) of the same molecule?
Answer: > 100 µM (inactive)

Question: What about the GI50 (HCC 2998) of the same molecule?
Answer: > 100 µM (inactive)

Question: What about the GI50 (LOX IMVI) of the same molecule?
Answer: > 100 µM (inactive)

Question: What about the GI50 (RPMI-8226) of the same molecule?
Answer: > 100 µM (inactive)

Question: And the GI50 (NCI-H226)?
Answer: 78.5 µM (inactive)

Question: What about the GI50 (HCT-15) of the same molecule?
Answer: > 100 µM

Question: What about the GI50 (HT-29) of the same molecule?
Answer: > 100 µM (inactive)

Question: And the GI50 (SK-MEL-5)?
Answer: > 100 µM (inactive)

Question: What about the GI50 (SN12C) of the same molecule?
Answer: > 100 µM (inactive)

Question: And the GI50 (SK-MEL-28)?
Answer: > 100 µM (inactive)

Question: What about the GI50 (UO-31) of the same molecule?
Answer: 80.4 µM (inactive)

Question: What about the GI50 (M14) of the same molecule?
Answer: > 100 µM (inactive)

Question: What about the GI50 (K562) of the same molecule?
Answer: > 100 µM (inactive)

Question: And the GI50 (OVCAR-8)?
Answer: > 100 µM (inactive)

Question: What about the GI50 (OVCAR-5) of the same molecule?
Answer: > 100 µM (inactive)

Question: And the GI50 (Hs-578T)?
Answer: 25.1 µM (inactive)

Question: What about the GI50 (SNB-75) of the same molecule?
Answer: 16.5 µM (inactive)

Question: And the GI50 (BT-549)?
Answer: > 100 µM (inactive)

Question: And the GI50 (KM12)?
Answer: > 100 µM (inactive)

Question: And the GI50 (MDA-N)?
Answer: > 100 µM (inactive)

Question: And the GI50 (U-251)?
Answer: > 100 µM (inactive)

Question: What about the GI50 (ACHN) of the same molecule?
Answer: > 100 µM (inactive)

Question: And the GI50 (MOLT-4)?
Answer: > 100 µM (inactive)

Question: And the GI50 (SF-268)?
Answer: 74.1 µM (inactive)

Question: What about the GI50 (SNB-19) of the same molecule?
Answer: > 100 µM (inactive)

Question: What about the GI50 (PC-3) of the same molecule?
Answer: > 100 µM (inactive)

Question: And the GI50 (SW-620)?
Answer: > 100 µM (inactive)

Question: What about the GI50 (MCF7) of the same molecule?
Answer: > 100 µM (inactive)

Question: And the GI50 (OVCAR-3)?
Answer: > 100 µM (inactive)

Question: What about the GI50 (CAKI-1) of the same molecule?
Answer: 17.5 µM (inactive)

Question: And the GI50 (A498)?
Answer: > 100 µM (inactive)

Question: What about the GI50 (COLO 205) of the same molecule?
Answer: > 100 µM (inactive)

Question: And the GI50 (HCT-116)?
Answer: > 100 µM (inactive)

Question: What about the GI50 (A549) of the same molecule?
Answer: > 100 µM (inactive)

Question: What about the GI50 (NCI/ADR-RES) of the same molecule?
Answer: 87.3 µM (inactive)

Question: And the GI50 (OVCAR-4)?
Answer: 27.1 µM (inactive)

Question: And the GI50 (DU-145)?
Answer: > 100 µM (inactive)

Question: What about the GI50 (HL-60) of the same molecule?
Answer: > 100 µM (inactive)

Question: What about the GI50 (786-0) of the same molecule?
Answer: > 100 µM (inactive)

Question: And the GI50 (SK-MEL-2)?
Answer: > 100 µM (inactive)

Question: What about the GI50 (HOP-92) of the same molecule?
Answer: > 100 µM (inactive)

Question: And the GI50 (MDA-MB-231)?
Answer: 50.2 µM (inactive)

Question: What about the GI50 (CCRF-CEM) of the same molecule?
Answer: > 10 µM (inactive)

Question: And the GI50 (NCI-H460)?
Answer: > 100 µM (inactive)

Question: What does the source list for `O=P(Oc1ccccc1)(Oc1ccccc1)Oc1c[nH]c2ccccc12`?
Answer: GI50 (NCI-H23): 10.1 µM (inactive); GI50 (UACC-62): 8.97 µM (inactive); GI50 (SF-539): 11.4 µM (inactive); GI50 (SR): 25.4 µM (inactive); GI50 (MDA-MB-435): 12.2 µM (inactive); GI50 (TK-10): 12.1 µM (inactive); GI50 (T47D): 8.91 µM (inactive); GI50 (UACC-257): 8.55 µM (inactive); GI50 (RXF 393): 13.7 µM (inactive); GI50 (SF-295): 3.28 µM (inactive); GI50 (SK-OV-3): 3.44 µM (inactive); GI50 (HCC 2998): 1.95 µM (inactive); GI50 (LOX IMVI): 14.6 µM (inactive); GI50 (IGROV-1): 4.07 µM (inactive); GI50 (RPMI-8226): 0.103 µM (active); GI50 (NCI-H226): 9.68 µM (inactive); GI50 (HCT-15): 12.8 µM; GI50 (HT-29): 6.07 µM (inactive); GI50 (SK-MEL-5): 11.3 µM (inactive); GI50 (SN12C): 11.6 µM (inactive); GI50 (SK-MEL-28): 12.7 µM (inactive); GI50 (UO-31): 5.33 µM (inactive); GI50 (M14): 11.3 µM (inactive); GI50 (K562): 10.7 µM (inactive); GI50 (OVCAR-8): 13.5 µM (inactive); GI50 (OVCAR-5): 0.0449 µM (active); GI50 (Hs-578T): 13.3 µM (inactive); GI50 (SNB-75): 10.8 µM (inactive); GI50 (BT-549): 17 µM (inactive); GI50 (KM12): 19.4 µM (inactive); GI50 (MDA-N): 11 µM (inactive); GI50 (U-251): 12.3 µM (inactive); GI50 (MOLT-4): 6.53 µM (inactive); GI50 (EKVX): 0.296 µM (active); GI50 (SF-268): 11.1 µM (inactive); GI50 (SNB-19): 13.1 µM (inactive); GI50 (PC-3): 0.847 µM (active); GI50 (SW-620): 13.4 µM (inactive); GI50 (MCF7): 11 µM (inactive); GI50 (OVCAR-3): 14.5 µM (inactive); GI50 (HOP-62): 14.9 µM (inactive); GI50 (CAKI-1): 4.13 µM (inactive); GI50 (A498): 14.1 µM (inactive); GI50 (COLO 205): 2.37 µM (inactive); GI50 (HCT-116): 15.2 µM (inactive); GI50 (Malme-3M): 16.2 µM (inactive); GI50 (A549): 11.1 µM (inactive); GI50 (NCI/ADR-RES): 3.45 µM (inactive); GI50 (OVCAR-4): 3.13 µM (inactive); GI50 (DU-145): 36.6 µM (inactive); GI50 (HL-60): 21.7 µM (inactive); GI50 (786-0): 15.5 µM (inactive); GI50 (SK-MEL-2): 5.47 µM (inactive); GI50 (HOP-92): 1.57 µM (inactive); GI50 (MDA-MB-231): 11.4 µM (inactive); GI50 (CCRF-CEM): 0.141 µM (active); GI50 (NCI-H460): 12.8 µM (inactive)
